Laboratory results taken from ChEMBL document CHEMBL1151656, “Cucurbitacin B and isocucurbitacin B: cytotoxic components of Helicteres isora” (1985).

Test: Cytotoxicity against human 9KB cells
Type: functional

Row | SMILES | ED50 [×10⁻⁵ ug/ml]
1 | CC(=O)OC(C)(C)/C=C/C(=O)[C@](C)(O)[C@H]1[C@H](O)C[C@@]2(C)[C@@H]3CC=C4[C@H](C[C@H](O)C(=O)C4(C)C)[C@]3(C)C(=O)C[C@]12C [CUCURBITACIN B] | <1
2 | CC(=O)OC(C)(C)/C=C/C(=O)[C@@](C)(O)[C@H]1[C@H](O)C[C@@]2(C)[C@@H]3CC=C4[C@@H](CC(=O)[C@@H](O)C4(C)C)[C@]3(C)C(=O)C[C@]12C [ISOCUCURBITACIN B] | 7.6
